# Experiments:
# [1] = test system: DMPG lipid bilayer supported on MS-PPE; test: Superquenching flow cytometric assay for disruption of DMPG lipid bilayer supported on MS-PPE; type: biochemical; details: 10 μM AQS, no disruptor, real-time kinetics
# Experimental: Lipid bilayers were disrupted by adding TRITON X-100 detergent to the bead suspension to a final concentration of 0.25% (w/v).
# Bead suspensions of 2.5×10^5 DMPG-coated MS-PPE in 200 μL of PBS were analyzed using a FACScan flow cytometer (Becton-Dickinson, Sunnyvale, Calif.) with excitation at 488 nm. Fluorescence signals were acquired on FL-1 channel (525 nm) using log amplification and analyzed with the CellQuest software. Kinetic analysis of disruption of supported lipid bilayer by melittin was performed by acquiring real-time data with continuous mixing of samples (10^6 MS-PPE in 800 μl of PBS) using a magnetic stirrer. The raw data were analyzed using IDL Query software developed by Bruce Edwards (Cancer Center, University of New Mexico, Albuquerque, N. Mex.).
# Because an anionic lipid was used to form a lipid bilayer around MS-PPE, it was expected that MLT will disrupt the DMPG lipid bilayer by such a detergent-like action. This was tested by adding 10 μM AQS to DMPG-coated MS-PPE followed by treatment with one of the following: TRITON X-100 detergent, synthetic MLT (sMLT), or natural MLT (nMLT) and immediately reading the fluorescence by flow cytometry. […] These histograms resemble the ones reported previously for MS-PPE, without a lipid coating, in absence and in presence of AQS.
# From FIG. 18, the association constant (corresponding to the reciprocal of the point of half saturation) for nMLT and sMLT with DMPG were 5×10^6 M^−1 and 1.7×10^6 M^−1, respectively. […] Lower concentrations of nMLT, in comparison to sMLT, were required to disrupt the DMPG lipid bilayer. This might be attributed to the fact that nMLT contains some phospholipase A2 (PLA2) as a contaminant. PLA2 has a high affinity for anionic phospholipids, with an association constant of 0.5×10^10 M^−1 (Kim et al., Anal. Chem. 250, 109-116 (1997)), which is about 3000 fold higher than that of MLT. Although PLA2 activity requires calcium, which is not present in the experimental system, it has been reported that even upon addition of EDTA to natural MLT, PLA2 maintains its activity, probably due to formation of a tight complex with calcium with PLA2 (Dempsey, C. E. Biochim. Biophys. Acta 1990, 1031, 143-161).
# The kinetics of disruption of supported lipid bilayer by MLT were monitored by measuring real-time changes in fluorescence intensity by flow cytometry (FIG. 19). Suspensions of 10^6 DMPG-coated MS-PPE in 800 μL of PBS were treated with AQS at a final concentration of 10 μM, then with either sMLT, TRITON X-100 detergent, or no treatment. […] Treatment with sMLT in the absence of AQS led to an increase in normalized fluorescence (FIG. 19, trace A). This can be attributed to disruption of the lipid bilayer by sMLT, and is consistent with a reversal of the slight quenching of fluorescence caused by the formation of a DMPG lipid bilayer over MS-PPE. Addition of AQS alone to DMPG-coated MS-PPE (FIG. 19, trace C) led to a 20% reduction in fluorescence as reported earlier. Addition of TRITON X-100 detergent to DMPG-coated MS-PPE after the addition of AQS (first dip in trace E, FIG. 19) caused immediate decrease in fluorescence to ˜10% of its original value (second dip in trace E, FIG. 19). In contrast, addition of sMLT, after the addition of AQS, (FIG. 19, trace D) led to a gradual reduction of fluorescence intensity to ˜20% of the original value. Although MLT forms dimers at high concentrations (Dempsey, C. E. Biochim. Biophys. Acta 1990, 1031, 143-161), it is monomeric at the concentrations used in this study. On the other hand, TRITON X-100 detergent forms micelles at the concentration used in this study.
# [2] = Superquenching of MS-PPE by AQS, flow cytometry; details: 10 μM AQS, 2.5×10^5 MS-PPE in 200 μL PBS
# Experimental: Bead suspensions of 2.5×10^5 PPE-coated microspheres in 200 μL PBS were analyzed using a FACScan flow cytometer (Becton-Dickinson, Sunnyvale, Calif.) with excitation at 488 nm. Fluorescence signals were acquired on the FL-1 channel (525 nm) using log amplification and analyzed with the CellQuest software.
# The effect of the quencher, AQS, on the fluorescence of MS-PPE was determined by adding different concentrations of AQS and immediately reading the fluorescence by flow cytometry (FIG. 14A) or by fluorimetry (FIG. 14B). Adding AQS to the suspension of MS-PPE decreased the fluorescence emission intensity in an AQS-concentration-dependent manner (FIGS. 14A and B). The quenching of the MS-PPE as detected by both fluorimetry and flow cytometry, could be described by a conventional Stern-Volmer equation: Io/I=1+KSV[Q] where Io and I represent the fluorescence intensities in the absence and in presence of the AQS, and KSV is the Stern-Volmer quenching constant. However, the fluorimeter was not sensitive enough to detect the lower fluorescence (higher quenching) when AQS was added to MS-PPE at concentrations higher than 5 μM. The values of KSV obtained by flow cytometry and fluorimetry were 0.78×10^6 M^−1, and 0.79×10^6 M^−1, respectively. The correlation coefficient for the more sensitive flow cytometry was higher than that obtained by fluorimetry. […]
# anionic phospholipids [3] = details: Kim et al. 1997; cited from earlier work
# anionic phospholipids [4] = test: Affinity of PLA2 for anionic phospholipids (Kim et al.); type: binding
# [5] = test system: cholesterol (10%, molar ratio) containing lipid membrane on porous particles; test: Release of dye from porous particles coated with cholesterol-containing lipid membrane by streptolysin-O; type: biochemical; details: even at low concentrations; 25° C. and 37° C.
# Experimental: FIGS. 22A-B illustrate one aspect of the invention—drug and/or dye release from the present lipid-coated particles. FIG. 22A is a graph showing release of dye from porous particles (containing dye inside) where the particles are coated with a cholesterol (10%, molar ratio) containing lipid membrane. As increasing amounts of streptolysin-O are added (solid square symbols represent lower concentration than solid ovals), more dye is released. […] FIG. 22B illustrates how streptolysin-O can disrupt cholesterol-containing lipid bilayer membranes, leading to release of materials (e.g., drugs or antibiotics) enclosed within the membrane. Streptolysin-O is an anti-microbial protein that preferably binds to cholesterol and can disrupt cholesterol-containing membranes.
compound,measurement,setting,value
"O=C1c2ccc(S(=O)(=O)O)cc2C(=O)c2ccc(S(=O)(=O)O)cc21 [AQS, 9,10-anthraquinone-2,6-disulfonic acid]",reduction in fluorescence of DMPG-coated MS-PPE on addition of AQS alone,[1],20%
same,reduction in fluorescence (normalized mean channel fluorescence),[2],90%
"PLA2: phospholipase A2, lipolytic enzyme, contaminant of natural melittin",association constant,anionic phospholipids [3],5e+09 M⁻¹
same,association constant higher than that of MLT,anionic phospholipids [4],about 3000 fold
streptolysin-O: anti-microbial protein that preferably binds to cholesterol and can disrupt cholesterol-containing membranes,release of dye compared with control without streptolysin-O,[5],greater than observed for control

# From patent US8465983B1, “Detection and delivery systems utilizing supported lipid bilayers” (priority 2005, dated 2013)
